{"source": "patent US11691984B2", "about": "“Compounds and methods for DCAF-mediated protein degradation” (The Scripps Research Institute, priority 2018, dated 2023)", "key": {"[1]": {"target": "T1, BRD2 (Homo sapiens, UniProt P25440)", "T1 construct": "endogenous in cells; host or cells: HEK293T", "T1 sequence (P25440 whole entry)": "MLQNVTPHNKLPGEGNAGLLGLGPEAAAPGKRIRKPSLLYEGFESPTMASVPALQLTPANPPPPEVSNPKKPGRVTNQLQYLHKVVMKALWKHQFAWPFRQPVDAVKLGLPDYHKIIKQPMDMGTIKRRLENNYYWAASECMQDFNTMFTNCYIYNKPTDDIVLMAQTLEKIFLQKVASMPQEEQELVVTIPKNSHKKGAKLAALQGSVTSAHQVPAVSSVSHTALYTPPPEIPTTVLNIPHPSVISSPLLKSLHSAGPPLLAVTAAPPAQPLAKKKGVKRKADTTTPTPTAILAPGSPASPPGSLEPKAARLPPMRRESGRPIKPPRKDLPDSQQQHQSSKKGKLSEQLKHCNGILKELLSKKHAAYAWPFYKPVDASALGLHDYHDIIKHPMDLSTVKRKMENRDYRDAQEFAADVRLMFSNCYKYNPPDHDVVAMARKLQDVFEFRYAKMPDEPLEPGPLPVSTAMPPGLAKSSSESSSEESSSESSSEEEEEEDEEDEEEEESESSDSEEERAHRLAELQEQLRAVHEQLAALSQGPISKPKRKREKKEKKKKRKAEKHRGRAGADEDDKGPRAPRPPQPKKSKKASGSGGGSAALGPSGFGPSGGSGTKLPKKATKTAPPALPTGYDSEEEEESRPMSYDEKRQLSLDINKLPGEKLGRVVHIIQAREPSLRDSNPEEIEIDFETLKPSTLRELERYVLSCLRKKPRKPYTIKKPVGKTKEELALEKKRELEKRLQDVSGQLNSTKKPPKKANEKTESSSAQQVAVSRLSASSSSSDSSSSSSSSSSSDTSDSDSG", "test": "Proteome-wide SILAC MS protein abundance in HEK293T cells: BRD2", "assay_type": "cell-based", "conditions": "KB02-JQ1 20 μM, 24 hours", "method": "HEK293T light and heavy SILAC cells were treated with DMSO and KB02-JQ1 (20 μM) or KB02-SLF (2 μM) for 24 hours, respectively. Light and heavy cells were collected and lysed in 1% NP-40 lysis buffer with complete protease inhibitor cocktail. Cells were vortexed and sonicated for 5 pulses (40%, 4). The supernatant was collected after centrifugation at 16,000 g for 10 min at 4° C. Protein concentration was determined by DC assay. 50 μg proteome from light and heavy samples were mixed, followed by methanol/chloroform precipitation. […] Next, the ratio of the peak areas under the light and heavy signals (signal-to-noise ratio>2.5) was calculated. […] In addition, peptides detected as ‘singletons,’ where only the heavy ion of a peptide pair was identified, but that cleared all other filtering parameters, were given a default assigned ratio of ‘20,’ which is defined as any measured ratio that is ≥20 and is the maximum ratio reported here.” The median SILAC ratios from quantified peptides were used as measures of protein abundance. The following quality filters were further applied to generate the plot: (1) proteins must have at least two quantified peptides; (2) proteins must be present in both replicates; (3) for each protein, the standard deviation of measured ratios of peptides must be <1.0."}, "[2]": {"tested_on": "HEK293T cells", "test": "Cell viability assay (Cell Titer Glo)", "assay_type": "cell-based, human", "method": "HEK293T cells were seeded in 96-well clear bottom white plate (Corning) at 3×10^4 cells per well in 100 μL of DMEM medium and grown for 24 h. The cells were treated with 0.625, 1.25, 2.5, 5, 10, 20 and 40 μM of KB02-SLF or KB02-JQ1 (DMSO stock, final DMEM concentration is 0.1% (v/v)) in 100 μL of DMEM medium for 24 h. 50 μL of Cell Titer Glo reagent (Promega) was added to each well and incubate for 10 min at room temperature. The luminescence was read on CLARIOstar (BMG LAB TECH)."}}, "data": [{"smiles": "Cc1sc2c(c1C)C(c1ccc(Cl)cc1)=N[C@@H](CC(=O)NCCOCCOCCNC(=O)COc1ccc3c(c1)CCCN3C(=O)CCl)c1nnc(C)n1-2", "note": "[KB02-JQ1, (S)-2-((1-(2-chloroacetyl)-1,2,3,4-tetrahydroquinolin-6-yl)oxy)-N-(2-(2-(2-(2-(4-(4-chlorophenyl)-2,3,9-trimethyl-6H-thieno[3,2-f][1,2,4]triazolo[4,3-a][1,4]diazepin-6-yl)acetamido)ethoxy)ethoxy)ethyl)acetamide]", "values": [{"measurement": "BRD2 abundance (MS-based proteomics)", "setting": "[1]", "value": "appeared to be stabilized"}]}, {"smiles": "CCC(C)(C)C(=O)C(=O)N1CCCC[C@H]1C(=O)O[C@H](CCc1ccc(OC)c(OC)c1)c1cccc(NC(=O)CCOCCOCCNC(=O)COc2ccc3c(c2)CCCN3C(=O)CCl)c1", "note": "[KB02-SLF, (R)-1-(3-(3-(2-(2-(2-((1-(2-chloroacetyl)-1,2,3,4-tetrahydroquinolin-6-yl)oxy)acetamido)ethoxy)ethoxy)propanamido)phenyl)-3-(3,4-dimethoxyphenyl)propyl (S)-1-(3,3-dimethyl-2-oxopentanoyl)piperidine-2-carboxylate]", "values": [{"measurement": "test concentrations with evidence of cytotoxicity", "setting": "[2]", "value": "> 10", "unit": "µM"}]}]}
